In US20100331424A1, “Use of Axomadol for Treatment of Arthrosis Pain” (Gruenenthal GmbH, priority 2007, published 2010):
Where a name gives a salt, the structure may show the parent alone.

Columns and labels:
[1] = tested on: moderate to severe chronic pain as a result of osteoarthritis (OA) of the hip or knee; experiment: Clinical Study A: axomadol vs tramadol and placebo, 4 weeks, patients with OA of the hip or knee; format: in vivo; conditions: for Decrease in pain intensity compared to baseline: full analysis set, day 29, axomadol 44, 66, 110 mg bid, tramadol 100 mg bid
Protocol: (§1) Two studies with a respective treatment period of 4 weeks were conducted to determine the efficacy and safety of axomadol in patients with moderate to severe chronic pain as a result of osteoarthritis (arthrosis, OA) of functional class I-III.
In this study, patients with OA of the hip or knee were divided into 5 groups.

[2] = tested on: CFA-hyperalgesia (CFA-HA); experiment: Antihyperalgesic effect in the chronic inflammation pain model (Complete Freund's Adjuvant, electronic von Frey); format: in vivo, Sprague Dawley rats
Protocol: The test to determine the antihyperalgesic effect of axomadol in chronic inflammation pain was conducted on rats in the Complete Freund's Adjuvant animal model (CFA).
A model for chronic inflammation represents the monoarthritis triggered by the Complete Freund's Adjuvant (CFA). By injecting a small quantity of CFA (100 μg M. tuberculosis) into the back paw a local inflammatory reaction restricted in time to 2-4 weeks occurred.
Sprague Dawley rats from a commercial breeder (Janvier, Belgium) having a weight of 140-160 g were used as test animals. The CFA-HA was induced in rats by subplantar injection of CFA (100 μl of the 1 mg/ml mycobacteria (heat-killed M. tuberculosis)/oil suspension (IFA; Difco)) into the back paw (ipsilaterally). The injection day was defined as day 0 (d 0).
Hyperalgesia to a mechanical tactile stimulus was detected by means of an electronic von Frey measuring instrument (Somedic Electronic von Frey System, Somedic Sales AB, Horby, Sweden). The paw was stimulated by subplantar application. To quantify the sensitivity of both the ipsi- and the contralateral paw to the mechanical stimulus, the paw pull-away threshold was given in grams of applied pressure. The median was formed from the four measured values per paw. The pull-away threshold of the ipsi- and contralateral paw was determined on day 1 after CFA injection before (=initial value) and at different times (15, 20 and 60 minutes) after substance dose (measured value). The efficacy of a substance was calculated as % inhibition of hyperalgesia as follows:
% inhibition of HA=(1−HA measured value/HA initial value)×100
HA initial value=pull away threshold contralateral−pull away threshold ipsilateral before substance dose
HA measured value=pull away threshold contralateral−pull away threshold ipsilateral after substance dose
In total, 10 rats were used in each test animal group. The mean±SEM was calculated from the medians of the individual animals. The significance calculation was conducted using the two-factor analysis of the variance (ANOVA) for repeated measurements. In the case of a significant treatment effect, a comparison in pairs was conducted at different measurement times by a Fisher's significance test, followed by a post hoc Dunnett test. The results were assessed as statistically significant at p<0.05.
In order to determine the maximum efficacy, the substance was administered intravenously (IV) up to the maximum possible dose.

[3] = tested on: moderate to severe chronic pain as a result of osteoarthritis (OA) of the knee; experiment: Clinical Study B: axomadol vs oxycodone CR and placebo, 4 weeks, patients with OA of the knee; format: in vivo; conditions: for p of primary endpoint compared to the placebo group: per protocol set
Protocol: In this study, patients with OA of the knee were divided into 4 groups. Two of the patient groups received different doses of axomadol hydrochloride: 100 mg and 150 mg based on the free base, twice daily in each case after a titration period of 2 weeks, in which the dose of axomadol was increased on a weekly basis. […] A further group was given a placebo twice daily.

[4] = tested on: moderate to severe chronic pain as a result of osteoarthritis (arthrosis, OA) of functional class I-III; experiment: Both clinical studies (A and B), statements made for both; format: in vivo, patients; conditions: after 4 weeks
Protocol: as §1

COc1cccc([C@@]2(O)C[C@H](O)CC[C@@H]2CN(C)C)c1 (racemic) [Axomadol, (1RS,3RS,6RS)-6-dimethylaminomethyl-1-(3-methoxyphenyl)-cyclohexane-1,3-diol]
Decrease in pain intensity compared to baseline [1]: clinically relevant decrease in pain intensity
p of decrease in pain intensity compared to the placebo group ([1]; per protocol set, 110 mg twice daily): < 0.05
Decrease in pain intensity, dose dependence ([1]; per protocol set, axomadol 44, 66, 110 mg twice daily): higher efficacy at the higher dose
Analgesic efficacy compared to morphine, oxycodone and tramadol (in words) ([2]; chronic inflammation pain model): better analgesic efficacy
Effect on CFA-induced hyperalgesia (in words) ([2]; rat): significantly reduces
Frequency of undesirable side-effects which caused patients to discontinue the study ([3]; 100 mg group): 16.3%
Frequency of undesirable side-effects which caused patients to discontinue the study ([3]; 150 mg group): 17.7%
Severity of undesirable effects ([3]; axomadol groups 100 mg and 150 mg twice daily): slight to moderate
p of average pain intensity of the last 24 hours on day 29 compared to the placebo ([3]; full analysis set, 100 mg twice daily): 0.0190
p of primary endpoint compared to the placebo group ([3]; 100 mg twice daily group): 0.0068
p of primary endpoint compared to the placebo group ([3]; 150 mg twice daily group): 0.0079
Decrease in pain intensity [4]: clinically significant decrease in pain intensity

COc1cccc([C@@]2(O)C[C@H](O)CC[C@@H]2CN(C)C)c1 (racemic) [Axomadol-HCl, (1RS,3RS,6RS)-6-dimethylaminomethyl-1-(3-methoxyphenyl)-cyclohexane-1,3-diol]
Instance of the most frequent undesirable effects vs every other treatment group ([1]; 110 mg twice daily): higher
Dose from which overlap with antinociceptive effect (comparators: also side-effects that impair measurement) ([2]; rat, IV): From 14.7 mg/kg: overlap with antinociceptive
% Inhibition of HA ([2]; rat, IV, dose 2.15 mg/kg): 16%
% Inhibition of HA ([2]; rat, IV, dose 10.0 mg/kg): 40%
% Inhibition of HA ([2]; rat, IV, dose 14.7 mg/kg): 9%
Antihyperalgesic effect at higher doses ([2]; rat, IV, doses higher than 10 mg/kg): 9%

CN1CC[C@]23c4c5ccc(O)c4O[C@H]2[C@@H](O)C=C[C@H]3[C@H]1C5 [Morphine]
Dose from which overlap with antinociceptive effect (comparators: also side-effects that impair measurement) ([2]; rat, IV): From 4.64 mg/kg: overlap with antinociceptive
% Inhibition of HA ([2]; rat, IV, dose 0.46 mg/kg): 8%
% Inhibition of HA ([2]; rat, IV, dose 1.00 mg/kg): 20%
% Inhibition of HA ([2]; rat, IV, dose 2.15 mg/kg): 27%

COc1ccc2c3c1O[C@H]1C(=O)CC[C@@]4(O)[C@@H](C2)N(C)CC[C@]314 [Oxycodone]
Dose from which overlap with antinociceptive effect (comparators: also side-effects that impair measurement) ([2]; rat, IV): From 0.681 mg/kg: overlap with antinociceptive
% Inhibition of HA ([2]; rat, IV, dose 0.215 mg/kg): 18%
% Inhibition of HA ([2]; rat, IV, dose 0.681 mg/kg): 26%
p of primary endpoint compared to the placebo group ([3]; oxycodone CR 20 mg twice daily group): 0.0154

COc1cccc(C2(O)CCCCC2CN(C)C)c1 (stereo not shown) [Tramadol, reference compound]
Decrease in pain intensity compared to baseline [1]: not observed
Dose from which overlap with antinociceptive effect (comparators: also side-effects that impair measurement) ([2]; rat, IV): From 4.64 mg/kg: overlap with antinociceptive
